According to patent publication US20260022142A1, “MACROCYCLIC IMMUNOMODULATORS” (Bristol-Myers Squibb Company, priority 2022, published 2026):
Bridge positions count the residues as written; N and C are the ends. Square brackets hold non-standard residues; d marks the D form. Peptide text beside a SMILES is read from it. * marks the point of attachment. Phe(3,4,5-F3) = N[C@@H](Cc1cc(F)c(F)c(F)c1)C(=O)O; Phe(4-COOH) = N[C@@H](Cc1ccc(C(=O)O)cc1)C(=O)O; Bip = N[C@@H](Cc1ccc(-c2ccccc2)cc1)C(=O)O; Phe(3-Me) = Cc1cccc(C[C@H](N)C(=O)O)c1; Val(3-OH) = CC(C)(O)[C@H](N)C(=O)O; Val(3-F) = CC(C)(F)[C@H](N)C(=O)O; 4Pal = N[C@@H](Cc1ccncc1)C(=O)O; Cha = N[C@@H](CC1CCCCC1)C(=O)O; Cit = NC(=O)NCCC[C@H](N)C(=O)O; 12Ado = NCCCCCCCCCCCC(=O)O; Carboxymethyl = O=C(O)C*; Orn = NCCC[C@H](N)C(=O)O; Aun = NCCCCCCCCCCC(=O)O; Dab = NCC[C@H](N)C(=O)O; Dap = NC[C@H](N)C(=O)O; AEEA = NCCOCCOCC(=O)O

These molecules were tested against T1, PD-1/PD-L1 interaction (PE-labeled human PD-L1-Ig binding to Jurkat cell line over-expressing human PD-1) (Homo sapiens, UniProt Q15116) (assay: Jurkat-PD-1 Cell Binding High-Content Screening Assay (CBA)). Conditions: Jurkat cell line over-expressing human PD-1; PE-labeled PD-L1-Ig 20 nM final; read-out: Jurkat hPD1-PDL1 IC50.
T1 construct: expressed in transfected cells; host or cells: Jurkat
T1 sequence (Q15116 25-288): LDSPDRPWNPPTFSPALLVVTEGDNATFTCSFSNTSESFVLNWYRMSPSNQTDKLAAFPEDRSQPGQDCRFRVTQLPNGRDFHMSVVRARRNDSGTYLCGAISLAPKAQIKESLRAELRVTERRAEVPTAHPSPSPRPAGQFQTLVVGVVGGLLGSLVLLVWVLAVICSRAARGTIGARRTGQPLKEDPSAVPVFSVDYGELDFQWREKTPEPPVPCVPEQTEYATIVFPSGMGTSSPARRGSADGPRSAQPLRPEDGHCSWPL
Assay type: cell-based
Outline: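 Jurkat cells over-expressing human PD-1 (8×10^3 per well, DMEM/10% FCS) preincubated with compound 2 h at 37° C, then PE-labeled human PD-L1-Ig (20 nM final) added for 1 h. Cells fixed with paraformaldehyde, Hoechst-stained, and bound fluorescence quantified by high-content imaging.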

IC50 [nM] | SMILES
2.6 | Cc1cccc(C[C@@H]2NC(=O)[C@H](CC(=O)O)NC(=O)[C@H](Cc3ccc(OCC(=O)O)cc3)NC(=O)[C@H](CCN)NC(=O)CSC[C@@H](C(=O)N[C@@H](CCN)C(=O)NCCOCCOCC(=O)NCCOCCOCC(=O)NCCOCCOCC(=O)NCCCCCCCCCCC(=O)O)NC(=O)[C@H](Cc3cnc[nH]3)NC(=O)[C@H](C(C)(C)O)NC(=O)[C@H](CC3CCCCC3)NC(=O)[C@H](CCN)NC(=O)[C@@H](CC(C)C)NC(=O)[C@H](CCCN)NC(=O)[C@H](Cc3ccc(C(=O)O)cc3)NC(=O)[C@H](Cc3ccc(-c4ccccc4)cc3)NC(=O)[C@H](Cc3ccc(C(=O)O)cc3)NC2=O)c1 [Compound 3772] ({CH2CO}-[Dab]Y(Carboxymethyl)D[Phe(3-Me)][Phe(4-COOH)][Bip][Phe(4-COOH)][Orn][dL][Dab][Cha][Val(3-OH)]HC[Dab][AEEA][AEEA][AEEA][Aun]-OH; thioether N-14)
20.8 | Cc1cccc(C[C@@H]2NC(=O)[C@H](CC(=O)O)NC(=O)[C@H](Cc3ccncc3)NC(=O)[C@H](Cc3ccc(OCC(=O)O)cc3)NC(=O)CSC[C@@H](C(=O)NCCOCCOCC(=O)NCCCCCCCCCCC(=O)O)NC(=O)[C@H]([C@@H](C)O)NC(=O)[C@H](C(C)C)NC(=O)[C@H](CC3CCCCC3)NC(=O)[C@H](CCN)NC(=O)[C@@H](CC(C)C)NC(=O)[C@H](CCCN)NC(=O)[C@H](C(C)C)NC(=O)[C@H](Cc3ccc(-c4ccccc4)cc3)NC(=O)[C@H](C(C)C)NC2=O)c1 [Compound 1162] ({CH2CO}-Y(Carboxymethyl)[4Pal]D[Phe(3-Me)]V[Bip]V[Orn][dL][Dab][Cha]VTC[AEEA][Aun]-OH; thioether N-14)
0.6 | Cc1cccc(C[C@@H]2NC(=O)[C@H](CC(=O)O)NC(=O)[C@H](Cc3ccc(OCC(=O)O)cc3)NC(=O)[C@H](CCCNC(=N)N)NC(=O)CSC[C@@H](C(=O)N[C@@H](CCN)C(=O)NCCOCCOCC(=O)NCCCCCCCCCCC(=O)O)NC(=O)[C@H](CO)NC(=O)[C@H](C(C)(C)O)NC(=O)[C@H](CC3CCCCC3)NC(=O)[C@H](CCN)NC(=O)[C@@H](CC(C)C)NC(=O)[C@H](CCCN)NC(=O)[C@H](Cc3ccc(OCC(=O)O)cc3)NC(=O)[C@H](Cc3ccc(-c4ccccc4)cc3)NC(=O)[C@H](Cc3ccc(OCC(=O)O)cc3)NC2=O)c1 [Compound 2244] ({CH2CO}-RY(Carboxymethyl)D[Phe(3-Me)]Y(Carboxymethyl)[Bip]Y(Carboxymethyl)[Orn][dL][Dab][Cha][Val(3-OH)]SC[Dab][AEEA][Aun]-OH; thioether N-14)
17.5 | CC(C)C[C@H]1NC(=O)[C@H](CCCN)NC(=O)[C@H](C(C)C)NC(=O)[C@H](Cc2ccc(-c3ccccc3)cc2)NC(=O)[C@H](C(C)C)NC(=O)[C@H](Cc2c[nH]c3ccccc23)NC(=O)[C@H](CC(=O)O)NC(=O)[C@H](Cc2ccncc2)NC(=O)[C@H](Cc2ccc(OCC(=O)O)cc2)NC(=O)CSC[C@@H](C(=O)NCC(=O)NCCOCCOCC(=O)N[C@@H](CCCN)C(=O)NCCCCCCCCCCCC(=O)O)NC(=O)[C@H](CN)NC(=O)[C@H](C(C)C)NC(=O)[C@H](CC2CCCCC2)NC(=O)[C@H](CCN)NC1=O [Compound 3170] ({CH2CO}-Y(Carboxymethyl)[4Pal]DWV[Bip]V[Orn][dL][Dab][Cha]V[Dap]CG[AEEA][Orn][12Ado]-OH; thioether N-14)
11.6 | Cc1cccc(C[C@@H]2NC(=O)[C@H](CC(=O)O)NC(=O)[C@H](Cc3ccc(OCC(=O)O)cc3)NC(=O)[C@H](CCCNC(=N)N)NC(=O)CSC[C@@H](C(=O)N[C@@H](CCN)C(=O)NCCCCCCCCCCC(=O)O)NC(=O)[C@H](CCCNC(N)=O)NC(=O)[C@H](C(C)C)NC(=O)[C@H](CC3CCCCC3)NC(=O)[C@H](CCN)NC(=O)[C@@H](CC(C)C)NC(=O)[C@H](CCC(N)=O)NC(=O)[C@H](Cc3ccc(OCC(=O)O)cc3)NC(=O)[C@H](Cc3ccc(-c4ccccc4)cc3)NC(=O)[C@H](CC(C)C)NC2=O)c1 [Compound 3372] ({CH2CO}-RY(Carboxymethyl)D[Phe(3-Me)]L[Bip]Y(Carboxymethyl)Q[dL][Dab][Cha]V[Cit]C[Dab][Aun]-OH; thioether N-14)
50 | Cc1cccc(C[C@@H]2NC(=O)[C@H](CC(=O)O)NC(=O)[C@H](Cc3ccc(OCC(=O)O)cc3)NC(=O)[C@H](Cc3cc(F)c(F)c(F)c3)NC(=O)CSC[C@@H](C(=O)N[C@@H](CCN)C(=O)NCCCCCCCCCCC(=O)O)NC(=O)[C@H](CO)NC(=O)[C@H](C(C)(C)O)NC(=O)[C@H](CC3CCCCC3)NC(=O)[C@H](CCN)NC(=O)[C@@H](CC(C)C)NC(=O)[C@H](CCCN)NC(=O)[C@H](Cc3ccc(OCC(=O)O)cc3)NC(=O)[C@H](Cc3ccc(-c4ccccc4)cc3)NC(=O)[C@H](Cc3ccc(OCC(=O)O)cc3)NC2=O)c1 [Compound 2199] ({CH2CO}-[Phe(3,4,5-F3)]Y(Carboxymethyl)D[Phe(3-Me)]Y(Carboxymethyl)[Bip]Y(Carboxymethyl)[Orn][dL][Dab][Cha][Val(3-OH)]SC[Dab][Aun]-OH; thioether N-14)
1.1 | Cc1cccc(C[C@@H]2NC(=O)[C@H](CC(=O)O)NC(=O)[C@H](Cc3ccc(OCC(=O)O)cc3)NC(=O)[C@H](CN)NC(=O)CSC[C@@H](C(=O)N[C@@H](C)C(=O)N[C@@H](CCC(=O)O)C(=O)NCCCCCCCCCCC(=O)O)NC(=O)[C@H]([C@@H](C)O)NC(=O)[C@H](C(C)C)NC(=O)[C@H](CC3CCCCC3)NC(=O)[C@H](CCN)NC(=O)[C@@H](CC(C)C)NC(=O)[C@H](CCCN)NC(=O)[C@H](CCCNC(N)=O)NC(=O)[C@H](Cc3ccc(-c4ccccc4)cc3)NC(=O)[C@H](C(C)C)NC2=O)c1 [Compound 1005] ({CH2CO}-[Dap]Y(Carboxymethyl)D[Phe(3-Me)]V[Bip][Cit][Orn][dL][Dab][Cha]VTCAE[Aun]-OH; thioether N-14)
9.4 | CC(C)C[C@H]1NC(=O)[C@H](CCCN)NC(=O)[C@H](CCCNC(N)=O)NC(=O)[C@H](Cc2ccc(-c3ccccc3)cc2)NC(=O)[C@H](C(C)C)NC(=O)[C@H](Cc2c[nH]c3ccccc23)NC(=O)[C@H](CC(=O)O)NC(=O)[C@H](Cc2ccc(OCC(=O)O)cc2)NC(=O)[C@H](Cc2ccc(OCC(=O)O)cc2)NC(=O)CSC[C@@H](C(=O)NCCOCCOCC(=O)N[C@@H](CCN)C(=O)NCCCCCCCCCCC(=O)O)NC(=O)[C@H](CCCNC(=N)N)NC(=O)[C@H](C(C)C)NC(=O)[C@H](CC2CCCCC2)NC(=O)[C@H](CCN)NC1=O [Compound 2655] ({CH2CO}-Y(Carboxymethyl)Y(Carboxymethyl)DWV[Bip][Cit][Orn][dL][Dab][Cha]VRC[AEEA][Dab][Aun]-OH; thioether N-14)
8.3 | Cc1cccc(C[C@@H]2NC(=O)[C@H](CC(=O)O)NC(=O)[C@H](Cc3ccc(OCC(=O)O)cc3)NC(=O)[C@H](CCCNC(=N)N)NC(=O)CSC[C@@H](C(=O)N[C@@H](CCN)C(=O)NCCCCCCCCCCC(=O)O)NC(=O)[C@H](CO)NC(=O)[C@H](C(C)(C)F)NC(=O)[C@H](CC3CCCCC3)NC(=O)[C@H](CCN)NC(=O)[C@@H](CC(C)C)NC(=O)[C@H](CCCN)NC(=O)[C@H](Cc3ccc(OCC(=O)O)cc3)NC(=O)[C@H](Cc3ccc(-c4ccccc4)cc3)NC(=O)[C@H](Cc3ccc(O)cc3)NC2=O)c1 [Compound 2121] ({CH2CO}-RY(Carboxymethyl)D[Phe(3-Me)]Y[Bip]Y(Carboxymethyl)[Orn][dL][Dab][Cha][Val(3-F)]SC[Dab][Aun]-OH; thioether N-14)
